{
  "source": "ChEMBL document CHEMBL1201862",
  "about": "“PubChem BioAssay data set” (2004)",
  "assay_in_all_cases": "NCI tumour cell line growth inhibition, 48 h",
  "key": {"CCRF-CEM": {"test_system": "CCRF-CEM"}, "MOLT-4": {"test_system": "MOLT-4"}, "SK-MEL-28": {"test_system": "SK-MEL-28"}, "A549": {"test_system": "A549"}, "IGROV-1": {"test_system": "IGROV-1"}, "LOX IMVI": {"test_system": "LOX IMVI"}, "COLO 205": {"test_system": "COLO 205"}, "SN12C": {"test_system": "SN12C"}, "MDA-N": {"test_system": "MDA-N"}, "T47D": {"test_system": "T47D"}, "SW-620": {"test_system": "SW-620"}, "SF-295": {"test_system": "SF-295"}, "SF-539": {"test_system": "SF-539"}, "HCT-116": {"test_system": "HCT-116"}, "UO-31": {"test_system": "UO-31"}, "OVCAR-4": {"test_system": "OVCAR-4"}, "EKVX": {"test_system": "EKVX"}, "SK-MEL-2": {"test_system": "SK-MEL-2"}, "UACC-62": {"test_system": "UACC-62"}, "KM12": {"test_system": "KM12"}, "HCT-15": {"test_system": "HCT-15"}, "U-251": {"test_system": "U-251"}, "HL-60": {"test_system": "HL-60"}, "HCC 2998": {"test_system": "HCC 2998"}, "HOP-62": {"test_system": "HOP-62"}, "ACHN": {"test_system": "ACHN"}, "HT-29": {"test_system": "HT-29"}, "SR": {"test_system": "SR"}, "TK-10": {"test_system": "TK-10"}, "NCI-H226": {"test_system": "NCI-H226"}, "SK-MEL-5": {"test_system": "SK-MEL-5"}, "RPMI-8226": {"test_system": "RPMI-8226"}, "SNB-75": {"test_system": "SNB-75"}, "PC-3": {"test_system": "PC-3"}, "CAKI-1": {"test_system": "CAKI-1"}, "Hs-578T": {"test_system": "Hs-578T"}, "DU-145": {"test_system": "DU-145"}, "SF-268": {"test_system": "SF-268"}, "NCI-H522": {"test_system": "NCI-H522"}, "NCI-H460": {"test_system": "NCI-H460"}, "M14": {"test_system": "M14"}, "NCI-H23": {"test_system": "NCI-H23"}, "MDA-MB-435": {"test_system": "MDA-MB-435"}, "Malme-3M": {"test_system": "Malme-3M"}, "OVCAR-8": {"test_system": "OVCAR-8"}, "MCF7": {"test_system": "MCF7"}, "OVCAR-5": {"test_system": "OVCAR-5"}, "MDA-MB-231": {"test_system": "MDA-MB-231"}, "SK-OV-3": {"test_system": "SK-OV-3"}, "RXF 393": {"test_system": "RXF 393"}, "BT-549": {"test_system": "BT-549"}, "K562": {"test_system": "K562"}, "A498": {"test_system": "A498"}, "OVCAR-3": {"test_system": "OVCAR-3"}, "786-0": {"test_system": "786-0"}, "SNB-19": {"test_system": "SNB-19"}, "UACC-257": {"test_system": "UACC-257"}},
  "note": "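Where inhibition never reached the appropriate level, the endpoint shown equals the highest concentration tested. Otherwise, values were interpolated linearly from a five-concentration, 48-hour dose response in 96-well plates. GI50 = concentration required for 50% inhibition of growth.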 Active and inactive are the calls of the source. Rule as the data show it: active = GI50 up to about 1.1 µM and inactive = higher.",
  "data": [
    {"smiles": "CN(C)CCNC(=O)c1cc([N+](=O)[O-])ccn1", "values": [
      {"measurement": "GI50", "setting": "CCRF-CEM", "value": "31.6 µM (inactive)"},
      {"measurement": "GI50", "setting": "MOLT-4", "value": "23.1 µM (inactive)"},
      {"measurement": "GI50", "setting": "SK-MEL-28", "value": "> 100 µM (inactive)"},
      {"measurement": "GI50", "setting": "A549", "value": "30.8 µM (inactive)"},
      {"measurement": "GI50", "setting": "IGROV-1", "value": "25.9 µM (inactive)"},
      {"measurement": "GI50", "setting": "LOX IMVI", "value": "30.1 µM (inactive)"},
      {"measurement": "GI50", "setting": "COLO 205", "value": "13.4 µM (inactive)"},
      {"measurement": "GI50", "setting": "SN12C", "value": "23.8 µM (inactive)"},
      {"measurement": "GI50", "setting": "MDA-N", "value": "16.7 µM (inactive)"},
      {"measurement": "GI50", "setting": "T47D", "value": "30.3 µM (inactive)"},
      {"measurement": "GI50", "setting": "SW-620", "value": "27 µM (inactive)"},
      {"measurement": "GI50", "setting": "SF-295", "value": "26.8 µM (inactive)"},
      {"measurement": "GI50", "setting": "SF-539", "value": "22.8 µM (inactive)"},
      {"measurement": "GI50", "setting": "HCT-116", "value": "24.8 µM (inactive)"},
      {"measurement": "GI50", "setting": "UO-31", "value": "> 100 µM (inactive)"},
      {"measurement": "GI50", "setting": "OVCAR-4", "value": "20.2 µM (inactive)"},
      {"measurement": "GI50", "setting": "EKVX", "value": "> 100 µM (inactive)"},
      {"measurement": "GI50", "setting": "SK-MEL-2", "value": "24.2 µM (inactive)"},
      {"measurement": "GI50", "setting": "UACC-62", "value": "19.2 µM (inactive)"},
      {"measurement": "GI50", "setting": "KM12", "value": "32.8 µM (inactive)"},
      {"measurement": "GI50", "setting": "HCT-15", "value": 18.1, "unit": "µM"},
      {"measurement": "GI50", "setting": "U-251", "value": "31 µM (inactive)"},
      {"measurement": "GI50", "setting": "HL-60", "value": "20.3 µM (inactive)"},
      {"measurement": "GI50", "setting": "HCC 2998", "value": "40 µM (inactive)"},
      {"measurement": "GI50", "setting": "HOP-62", "value": "31.4 µM (inactive)"},
      {"measurement": "GI50", "setting": "ACHN", "value": "36.7 µM (inactive)"},
      {"measurement": "GI50", "setting": "HT-29", "value": "11.4 µM (inactive)"},
      {"measurement": "GI50", "setting": "SR", "value": "54.8 µM (inactive)"},
      {"measurement": "GI50", "setting": "TK-10", "value": "> 100 µM (inactive)"},
      {"measurement": "GI50", "setting": "NCI-H226", "value": "> 100 µM (inactive)"},
      {"measurement": "GI50", "setting": "SK-MEL-5", "value": "18.6 µM (inactive)"},
      {"measurement": "GI50", "setting": "RPMI-8226", "value": "45.1 µM (inactive)"},
      {"measurement": "GI50", "setting": "SNB-75", "value": "> 100 µM (inactive)"},
      {"measurement": "GI50", "setting": "PC-3", "value": "23.1 µM (inactive)"},
      {"measurement": "GI50", "setting": "CAKI-1", "value": "34 µM (inactive)"},
      {"measurement": "GI50", "setting": "Hs-578T", "value": "46.8 µM (inactive)"},
      {"measurement": "GI50", "setting": "DU-145", "value": "> 100 µM (inactive)"},
      {"measurement": "GI50", "setting": "SF-268", "value": "28.4 µM (inactive)"},
      {"measurement": "GI50", "setting": "NCI-H522", "value": "18.1 µM (inactive)"},
      {"measurement": "GI50", "setting": "NCI-H460", "value": "38.1 µM (inactive)"},
      {"measurement": "GI50", "setting": "M14", "value": "36.7 µM (inactive)"},
      {"measurement": "GI50", "setting": "NCI-H23", "value": "20.9 µM (inactive)"},
      {"measurement": "GI50", "setting": "MDA-MB-435", "value": "19 µM (inactive)"},
      {"measurement": "GI50", "setting": "Malme-3M", "value": "14.8 µM (inactive)"},
      {"measurement": "GI50", "setting": "OVCAR-8", "value": "27.2 µM (inactive)"},
      {"measurement": "GI50", "setting": "MCF7", "value": "16.6 µM (inactive)"},
      {"measurement": "GI50", "setting": "OVCAR-5", "value": "71.4 µM (inactive)"},
      {"measurement": "GI50", "setting": "MDA-MB-231", "value": "25.4 µM (inactive)"},
      {"measurement": "GI50", "setting": "SK-OV-3", "value": "70.3 µM (inactive)"},
      {"measurement": "GI50", "setting": "RXF 393", "value": "41.6 µM (inactive)"},
      {"measurement": "GI50", "setting": "BT-549", "value": "84.5 µM (inactive)"},
      {"measurement": "GI50", "setting": "K562", "value": "21.5 µM (inactive)"},
      {"measurement": "GI50", "setting": "A498", "value": "> 100 µM (inactive)"},
      {"measurement": "GI50", "setting": "OVCAR-3", "value": "22.5 µM (inactive)"},
      {"measurement": "GI50", "setting": "786-0", "value": "42.5 µM (inactive)"},
      {"measurement": "GI50", "setting": "SNB-19", "value": "33.6 µM (inactive)"},
      {"measurement": "GI50", "setting": "UACC-257", "value": "16.3 µM (inactive)"}
    ]}
  ]
}
